Measurements published in article PMC4745685, “Caffeine affects the biological responses of human hematopoietic cells of myeloid lineage via downregulation of the mTOR pathway and xanthine oxidase activity” (Oncotarget, 2015).

Target: T1, xanthine oxidase (XOD) (Bos taurus, UniProt P80457)
T1 construct: gene XDH; purified bovine liver XOD
Assay: enzyme kinetics, Lineweaver-Burk analysis with purified bovine liver XOD
Assay type: biochemical

T1 sequence (P80457 2-1332): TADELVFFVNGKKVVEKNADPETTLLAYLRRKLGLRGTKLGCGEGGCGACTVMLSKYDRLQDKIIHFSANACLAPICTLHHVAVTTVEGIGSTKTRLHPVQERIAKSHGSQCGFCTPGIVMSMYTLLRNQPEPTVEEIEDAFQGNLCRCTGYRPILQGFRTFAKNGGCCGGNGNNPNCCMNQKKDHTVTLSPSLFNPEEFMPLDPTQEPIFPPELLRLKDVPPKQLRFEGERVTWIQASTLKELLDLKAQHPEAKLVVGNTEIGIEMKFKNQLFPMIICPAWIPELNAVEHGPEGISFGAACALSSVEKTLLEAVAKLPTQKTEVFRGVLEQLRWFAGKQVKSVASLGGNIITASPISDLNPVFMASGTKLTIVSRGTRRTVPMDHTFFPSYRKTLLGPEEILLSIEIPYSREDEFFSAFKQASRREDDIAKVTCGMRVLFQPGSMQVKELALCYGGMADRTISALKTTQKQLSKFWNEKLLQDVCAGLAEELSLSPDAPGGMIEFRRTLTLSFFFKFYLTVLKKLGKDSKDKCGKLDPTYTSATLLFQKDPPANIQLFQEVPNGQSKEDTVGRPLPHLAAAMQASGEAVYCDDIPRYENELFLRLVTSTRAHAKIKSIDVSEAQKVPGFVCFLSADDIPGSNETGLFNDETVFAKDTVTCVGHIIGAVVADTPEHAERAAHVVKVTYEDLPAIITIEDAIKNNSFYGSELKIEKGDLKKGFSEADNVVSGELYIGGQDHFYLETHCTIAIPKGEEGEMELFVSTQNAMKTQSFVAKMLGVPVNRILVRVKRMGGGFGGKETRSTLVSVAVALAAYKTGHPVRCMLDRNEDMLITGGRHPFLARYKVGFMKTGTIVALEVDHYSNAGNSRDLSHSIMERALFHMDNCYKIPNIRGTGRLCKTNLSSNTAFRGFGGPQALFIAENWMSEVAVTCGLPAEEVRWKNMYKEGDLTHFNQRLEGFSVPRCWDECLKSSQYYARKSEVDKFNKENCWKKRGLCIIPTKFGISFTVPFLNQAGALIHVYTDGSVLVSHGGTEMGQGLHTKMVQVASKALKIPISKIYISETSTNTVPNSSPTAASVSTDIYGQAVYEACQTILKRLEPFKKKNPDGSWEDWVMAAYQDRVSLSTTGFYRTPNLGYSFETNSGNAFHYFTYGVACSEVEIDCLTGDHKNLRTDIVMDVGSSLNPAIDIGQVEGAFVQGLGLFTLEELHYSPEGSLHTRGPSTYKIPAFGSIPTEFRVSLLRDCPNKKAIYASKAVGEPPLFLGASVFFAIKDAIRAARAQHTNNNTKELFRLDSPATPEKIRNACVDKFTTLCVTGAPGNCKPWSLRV

Cn1c(=O)c2c(ncn2C)n(C)c1=O [caffeine, 1,3,7-trimethylxanthine]
Ki: 4.02 mM
